From US8039076B2, “Dye and recording media utilizing the same” (Industrial Technology Research Institute, priority 2006, dated 2011)

Assay: Optical measurement of the dyes by UV-visible spectrophotometer
Type: physicochemical
Parameters: Max absorption wavelength in MeOH solution: unit: nm
Conditions: for absorption coefficient (ε) (* 10^4) / Max absorption wavelength in MeOH solution: MeOH solution
From the text: Measured by UV-visible spectrophotometer, the optical properties (e.g. maximum absorption wavelength in solution) of the dyes of the preferred embodiments are tabulated in Table 1. In Table 1, dye I-2 has a maximum absorption wavelength of 489 nm in methanol solution, and dye V-2 has a maximum absorption wavelength of 493 nm in methanol solution, respectively.

[1] = at second printed absorption maximum

SMILES	absorption coefficient (ε) (* 10^4) (at first absorption maximum)	Max absorption wavelength in MeOH solution (first band)	maximum absorption wavelength in methanol solution [nm]	absorption coefficient (ε) (* 10^4) [1]	Max absorption wavelength in MeOH solution (second printed band)
CC1=[N+](C)c2ccccc2C1(C)C [Dye I-2]	15.4 * 10^4	489	489	–	–
CC1=[N+](C)c2ccccc2C1(C)C [Dye V-2]	19.1 * 10^4	493	493	–	–
c1ccncc1 [I-a]	4.98 * 10^4	460	–	–	–
CC1=[N+](Cc2ccc(C(=O)OCC(F)(F)C(C)F)cc2)c2ccccc2C1(C)C (stereo not drawn) [I-b]	8.4 * 10^4	495	–	–	–
CCCC[N+](CCCC)(CCCC)CCCC [I-c]	6.22 * 10^4	460	–	–	–
CCCCN(CCCC)c1ccc([N+](=C2C=CC(=[N+](c3ccc(N(CCCC)CCCC)cc3)c3ccc(N(CCCC)CCCC)cc3)C=C2)c2ccc(N(CCCC)CCCC)cc2)cc1 [I-d]	6.58 * 10^4	460	–	5.11 * 10^4	1067
CC1=[N+](Cc2ccc(C(=O)OCC(F)(F)C(F)F)cc2)c2ccccc2C1(C)C [I-e]	7.58 * 10^4	471	–	–	–
CC1=[N+](Cc2ccc(C(=O)OCC(F)(F)C(F)F)cc2)c2ccccc2C1(C)C [I-f]	8.08 * 10^4	448	–	–	–
CC1=[N+](Cc2ccc(C(=O)OCC(F)(F)C(F)F)cc2)c2ccccc2C1(C)C [I-g]	12.99 * 10^4	463	–	–	–
CC1=[N+](C)c2ccccc2C1(C)C [I-h]	18.5 * 10^4	462	–	–	–
CC1=[N+](Cc2ccc(C(=O)OCC(F)(F)C(F)F)cc2)c2ccccc2C1(C)C [I-i]	12.2 * 10^4	464	–	–	–
CCCC[N+]1=C(C)C(C)(C)c2ccccc21 [I-j]	12.1 * 10^4	459	–	–	–
CCOC(=O)CCCC[N+]1=C(C)C(C)(C)c2ccccc21 [I-k]	11.8 * 10^4	460	–	–	–
COS(=O)(=O)CCCC[N+]1=C(C)C(C)(C)c2ccccc21 [I-l]	12.5 * 10^4	461	–	–	–
Cc1sc2ccccc2[n+]1C [I-m]	10.7 * 10^4	472	–	–	–
CC1=[N+](C)c2ccccc2C1(C)C [I-n]	11.5 * 10^4	462	–	–	–
CCCC[N+](CCCC)(CCCC)CCCC [V-a]	6.41 * 10^4	461	–	–	–
CC1=[N+](Cc2ccc(C(=O)OCC(C)(C)C(C)C)cc2)c2ccccc2C1(C)C [V-b]	9.72 * 10^4	492	–	–	–
CCCCN(CCCC)c1ccc([N+](=C2C=CC(=[N+](c3ccc(N(CCCC)CCCC)cc3)c3ccc(N(CCCC)CCCC)cc3)C=C2)c2ccc(N(CCCC)CCCC)cc2)cc1 [V-c]	6.8 * 10^4	461	–	3.8 * 10^4	1067
CCN(CC)CC [V-d]	8.45 * 10^4	463	–	–	–
CC1=[N+](C)c2ccccc2C1(C)C [V-e]	10.35 * 10^4	490	–	–	–
